Experimental data from patent US4831170A, “Pharmaceutically active phospino-hydrocarbon-group VIII-metal complexes, antitumor compositions containing these complexes, and a process for preparing said compounds or antitumor compositions” (priority 1985, dated 1989).

What was measured:
[1] = Struck et al., J. Med. Chem., 9, 414 (1966); cited from earlier work
[2] = tested on: B16 Melanoma; test: Antitumor activity against B16 Melanoma in BDF1 mice; type: in vivo; conditions: for B 16 Dose producing the maximum % T/C: administered ip, days 1-9; for B 16 Maximum % T/C: median survival time vs saline control, ip, daily days 1-9, active if ≥125, figures separated by slashes are from separate experiments
Experimental: Several of the metal complexes were additionally evaluated for antitumor activity against B16 Melanoma. BDF1 mice, 10 per group, were inoculated intraperitoneally with 0.5 ml of a 10 percent (w:v) brei of B16 Melanoma. Intraperitoneal treatment with the metal complexes was initiated one day after implant and continued daily for a total of nine days. From 4 to 5 doses were tested for each compound under study. A saline treated control group and cisplatin treated groups were included in each experiment. The mice were observed daily for survivors and the experiments terminated after 60 days. […] The median survival time of the drug treated mice relative to that of the controls (% T/C) was used as a measure of antitumor activity.
(§1) Occasionally, 5% dextrose in water or 10% DMSO in 0.9% NaCl was used. The compounds were prepared for in vivo treatment by dissolving or suspending, with the addition of minimal amounts of Tween 80, in water.

[3] = tested on: L1210 murine leukemia; test: Antitumor activity against L1210 murine leukemia in CDF1 mice; type: in vivo; conditions: day 1; for L1210 Dose producing the maximum % T/C: administered ip; for L1210 Max. % T/C: median survival time treated/saline control x 100, ip, active if ≥125
Experimental: (§2) All of the metal complexes were tested for antitumor activity against P388 murine leukemia. Selected compounds were also tested for antitumor activity against L1210 murine leukemia and a subline of L1210 murine leukemia resistant to cisplatin (L1210:DDP). CDF1 mice weighing 20 grams were inoculated intraperitoneally with 10^6 ascites cells of P388 leukemia, L1210 leukemia or L1210:DDP leukemia, depending on the test system being used. Drug administration was initiated the day following tumor implantation in all test systems. The complexes were administered at various dose levels by intraperitoneal injection. Groups of four to six mice were used for each dose level and they were treated with the complex on day one only. A group of ten saline treated control mice was included in each experiment. Cisplatin treated groups were included as a positive control in each experiment. The mice were weighed before treatment and again on day five or six and the average weight change used as a measure of toxicity. The animals were observed daily for mortality and the experiments terminated after 30 days. Antitumor activity was determined based on % T/C, which is the ratio of the median survival time of the drug treated group to the median survival time of the saline treated control group times 100. The saline treated mice usually have a median survival time of 9 days with P388 leukemia and 7 days with L1210 and L1210/DDP leukemia. A complex is considered active if it produces a % T/C of ≥125.
(§3) Tables II and IIa contain summaries of the evaluations of the compounds for antitumor activity against the murine leukemias. Listed for each compound is the maximum % T/C achieved and the dose producing that effect.
as §1, with “For the in vitro cytotoxicity studies the drugs were dissolved or suspended, depending on their solubility, in 0.9% NaCl solution. Occasionally,” for “Occasionally,”

[4] = tested on: B16-F10 murine melanoma cells; test: In vitro cytotoxicity, B16-F10 murine melanoma cells (72 h, crystal violet); type: cell-based
Experimental: (§4) Logarithmically growing cells were harvested by mild trypsinization and 4000 cells were added to each well of a 96-well microtiter plate (Costar). […] The cells were then treated with a metal complex or cisplatin and incubated for 72 hours. The plates were inverted and shaken to remove media, drug and detached cells. […] The fixative was removed, the plates air dried, stained with 0.0075% crystal violet for 15 minutes, washed twice and air dried. The stain was solubilized with 0.2 ml of 0.1 M AcOH/EtOH (1:1) and optical densities determined using a Dynatech MR600 microtiter plate reader. […] The compounds were prepared for in vivo treatment by dissolving or suspending, with the addition of minimal amounts of Tween 80, in water.

[5] = tested on: HCT-116 human colon carcinoma cells; test: In vitro cytotoxicity, HCT-116 human colon carcinoma cells (72 h, crystal violet); type: cell-based; conditions: HCT-116 cells
Experimental: as §4

[6] = tested on: L1210 murine leukemia resistant to cisplatin (L1210:DDP); test: Antitumor activity against cisplatin-resistant L1210 murine leukemia (L1210/DDP) in CDF1 mice; type: in vivo; conditions: cisplatin-resistant subline, day 1; for L1210/DDP Dose producing the maximum % T/C: administered ip; for L1210/DDP Max. % T/C: done concomitantly with L1210 test, ip, active if ≥125
Experimental: as §2, §3
as §1, with “For the in vitro cytotoxicity studies the drugs were dissolved or suspended, depending on their solubility, in 0.9% NaCl solution. Occasionally,” for “Occasionally,”

[7] = tested on: P388 murine leukemia; test: Antitumor activity against P388 murine leukemia in CDF1 mice; type: in vivo; conditions: 1 x on day 1; for P 388 Dose producing the maximum % T/C: administered ip; for P 388 Maximum % T/C: median survival time treated/saline control x 100, ip, active if ≥125
Experimental: as §2, §3
as §1, with “For the in vitro cytotoxicity studies the drugs were dissolved or suspended, depending on their solubility, in 0.9% NaCl solution. Occasionally,” for “Occasionally,”

SMILES | cytotoxic activity [1] | B 16 Dose producing the maximum % T/C [2] [mg/kg/inj.] | B 16 Maximum % T/C [2] [% T/C] | L1210 Dose producing the maximum % T/C [3] [mg/kg] | L1210 Max. % T/C [3] [% T/C] | IC 50 (concentration which inhibits cell growth by 50%), B 16 [4] [µg/mL] | IC 50 (concentration which inhibits cell growth by 50%), HCT 116 [5] [µg/mL] | L1210/DDP Dose producing the maximum % T/C [6] [mg/kg] | L1210/DDP Max. % T/C [6] [% T/C] | P 388 Dose producing the maximum % T/C [7] [mg/kg] | P 388 Maximum % T/C [7] [% T/C]
c1ccc(P(CCP(c2ccccc2)c2ccccc2)c2ccccc2)cc1 [1,2-bis-(diphenylphosphino)ethane, 1,2-bis(diphenylphosphino)ethane] | cytotoxic activity | – | – | – | – | – | – | – | – | – | –
O=[N+]([O-])[O-].O=[N+]([O-])[O-].[Co+2].c1ccc(P(CCP(c2ccccc2)c2ccccc2)c2ccccc2)cc1.c1ccc(P(CCP(c2ccccc2)c2ccccc2)c2ccccc2)cc1 [TNO 347, Bis[1,2-bis(diphenylphosphino)ethane]nitrato cobalt(II) nitrate] | – | 20 | 171 | 100 | 100 | 413 | > 500 | 50 | 150 | 100 | 161
O=[N+]([O-])[O-].O=[N+]([O-])[O-].[Ni+2].c1ccc(P(CCP(c2ccccc2)c2ccccc2)c2ccccc2)cc1.c1ccc(P(CCP(c2ccccc2)c2ccccc2)c2ccccc2)cc1 [TNO 354, Bis[1,2-bis(diphenylphosphino)ethane]nickel(II) dinitrate] | – | 30 | 183 | 80 | 100 | 4.1 | 1.3 | 80 | 138 | 50 | 139
